Columns and labels:
[1] = molecular target: T1, 20S proteasome core particle (Saccharomyces cerevisiae, UniProt P23724+P30656); assay: Chymotryptic-like activity of purified yeast 20S core particle (Suc-Leu-Leu-Val-Tyr-AMC); assay type: biochemical
T1 construct: various proteasome forms purified from yeast; made in house; host or cells: yeast
Procedure: (§1) Proteasome activity was quantified by measuring the kinetics of fluorescence release (380 nm excitation, 460 nm emission). Fluorescence was measured at an interval of 30 seconds for 30 minutes with 5 seconds of mixing prior to each cycle. Proteasomes were purified as described previously, [35].
(§2) After incubation for 15 minutes, enzyme activity was measured by monitoring the fluorescence kinetics for the next 30 minutes. […] Enzyme activity is expressed as percent control without inhibitor. Error bars show standard error of the mean; error bars smaller than symbol size are not visible.

SH-SY5Y cells = conditions: cited from earlier work
[2] = molecular target: T2, recombinant human puromycin-sensitive aminopeptidase (PSAP, rhNPEPPS) (Homo sapiens, UniProt P55786); assay: Cleavage of Leu-AMC and Ala-AMC by purified recombinant PSAP; assay type: biochemical; conditions: 10 µM inhibitor, Ala-AMC
T2 construct: purchased R&D Systems
Procedure: To measure the effect of inhibitors on cleavage of Leu-AMC and Ala-AMC by purified PSAP, recombinant human PSAP (rhNPEPPS, R&D Systems) was diluted 1∶2000 in Buffer 2 containing 0.1 mg/ml BSA. The enzyme was pre-incubated with the inhibitor and Buffers 1 or 2, followed by addition of 100 µM final concentration of Leu-AMC (to the mix containing Buffer 1) and Ala-AMC (to the mix containing Buffer 2). After incubation at 37°C for 1 hour, PSAP activity was quantified by fluorescence measurement of the substrate (380 nm excitation, 460 nm emission).
(§3) Figure 7 Effect of aminopeptidase inhibitors on Ala-AMC and Leu-AMC cleavage. HEK 293T cell extract (panels A–D) or recombinant PSAP (panels E–F) were treated with increasing concentrations of bestatin or puromycin for 30 minutes followed by the addition of substrate and incubation for 1 hour. Enzyme activity was determined by fluorescence measurement of AMC and expressed as percentage enzyme activity relative to the control without inhibitor. (A) Bestatin inhibition of HEK293T cell extract assayed with Ala-AMC. (B) Bestatin inhibition of HEK293T cell extract assayed with Leu-AMC. (C) Puromycin inhibition of HEK293T cell extract assayed with Ala-AMC. (D) Puromycin inhibition of HEK293T cell extract assayed with Leu-AMC. (E) Puromycin inhibition of purified PSAP assayed with Ala-AMC. (F) Puromycin inhibition of purified PSAP assayed with Leu-AMC. Error bars show standard error of mean (n = 4), points without error bars had error ranges smaller than the symbol size. Statistical analysis was performed using Student’s t-test: *, p≤0.05; **, p≤0.01; ***, p≤0.001; ns, no significant difference (p>0.05) versus the control.
(§4) Figure 8 Effect of proteasome inhibitors on Ala-AMC and Leu-AMC cleavage. HEK 293T cell extract or recombinant PSAP was treated with 10 µM of each of the proteasome inhibitors for 1 hour in addition to a 30 min pre-incubation without the substrate. Enzyme activity was determined by fluorescence measurement of AMC and expressed as percentage enzyme activity relative to the control without inhibitor. Panels A and B represent the effect of proteasome inhibitors on cleavage of Ala-AMC and Leu-AMC respectively, in HEK293T cell extract. […] Error bars show standard error of mean (n = 4). Statistical analysis was performed using Student’s t-test: *, p≤0.05; **, p≤0.01; ***, p≤0.001; ns, no significant difference (p>0.05) versus the control.

[3] = system: tripeptidyl peptidase 2 (TPP2); assay: Ala-Ala-Phe-AMC cleavage (TPP2 substrate) in HEK293T cell extracts; assay type: biochemical, human; conditions: HEK293T cell extract, up to 5 µM
Procedure: (§5) All enzyme assays described below were performed in the linear range of the assay, as determined from time-course studies. HEK293T cells were lysed by sonication in 50 mM TrisHCl buffer, pH 7.5, containing 40 mM KCl, 5 mM MgCl2, 0.5 mM ATP, and 1 mM DTT (Buffer 1).
(§6) To measure TPP2, the fluorescent substrate was Ala-Ala-Phe-AMC. Aminopeptidase (AP) assays were performed with Leu-AMC and Ala-AMC, which detect leucine aminopeptidase (LAP), puromycin-sensitive aminopeptidase (PSAP), and other enzymes. To measure the effect of aminopeptidase/proteasome inhibitors on cleavage of Ala-Ala-Phe-AMC and Leu-AMC, 1∶50 dilution of the cell extract was pre-incubated with the inhibitor and Buffer 1 for 30 min, followed by addition of 100 µM final concentration of the respective substrate. For Ala-AMC, the same dilution of the cell extract was pre-incubated with the inhibitor and 50 mM MOPS buffer, pH 7.5, containing 40 mM KCl, 5 mM MgCl2, 0.5 mM ATP, and 1 mM DTT (Buffer 2), followed by addition of 100 µM final concentration of the substrate. After incubation at 37°C for 1 hour, enzyme activity was quantified by fluorescence measurement of the substrate (380 nm excitation, 460 nm emission).
Enzyme activity was determined by fluorescence measurement of AMC and expressed as percentage enzyme activity relative to the control lacking inhibitor. […]

26S proteasome = 26S proteasome (Saccharomyces cerevisiae, UniProt P23724+P30656); assay: Chymotryptic-like activity of purified yeast 26S proteasome (Suc-Leu-Leu-Val-Tyr-AMC); assay type: biochemical; conditions: in the presence of ATP
Procedure: as §1, §2

[4] = system: open gate mutant of the 20S core particle; assay: Chymotryptic-like activity of open gate mutant of yeast 20S (Suc-Leu-Leu-Val-Tyr-AMC); assay type: biochemical; conditions: in the absence of ATP
Procedure: as §1, §2

[5] = molecular target: T3, Blm10-activated 20S core particle (Saccharomyces cerevisiae, UniProt P23724+P30656); assay: Chymotryptic-like activity of purified yeast Blm10-20S (Suc-Leu-Leu-Val-Tyr-AMC); assay type: biochemical; conditions: in the absence of ATP
T3 construct: various proteasome forms purified from yeast; made in house; host or cells: yeast
Procedure: as §1, §2

[6] = system: HEK293T cell aminopeptidase activity (Ala-AMC cleavage); assay: Aminopeptidase assay with Ala-AMC in HEK293T cell extracts; assay type: biochemical, human; conditions: HEK293T cell extract; for Enzyme activity (% control with no inhibitor): Ala-AMC
Procedure: as §5, §6, §3, §4

HEK293T cells = conditions: HEK293T cells; cited from earlier work
[7] = system: HEK293T cell aminopeptidase activity (Leu-AMC cleavage); assay: Aminopeptidase assay with Leu-AMC in HEK293T cell extracts; assay type: biochemical, human; conditions: HEK293T cell extract, 10 µM inhibitor
Procedure: as §5, §6, §3, §4

T2 sequence (P55786 whole entry): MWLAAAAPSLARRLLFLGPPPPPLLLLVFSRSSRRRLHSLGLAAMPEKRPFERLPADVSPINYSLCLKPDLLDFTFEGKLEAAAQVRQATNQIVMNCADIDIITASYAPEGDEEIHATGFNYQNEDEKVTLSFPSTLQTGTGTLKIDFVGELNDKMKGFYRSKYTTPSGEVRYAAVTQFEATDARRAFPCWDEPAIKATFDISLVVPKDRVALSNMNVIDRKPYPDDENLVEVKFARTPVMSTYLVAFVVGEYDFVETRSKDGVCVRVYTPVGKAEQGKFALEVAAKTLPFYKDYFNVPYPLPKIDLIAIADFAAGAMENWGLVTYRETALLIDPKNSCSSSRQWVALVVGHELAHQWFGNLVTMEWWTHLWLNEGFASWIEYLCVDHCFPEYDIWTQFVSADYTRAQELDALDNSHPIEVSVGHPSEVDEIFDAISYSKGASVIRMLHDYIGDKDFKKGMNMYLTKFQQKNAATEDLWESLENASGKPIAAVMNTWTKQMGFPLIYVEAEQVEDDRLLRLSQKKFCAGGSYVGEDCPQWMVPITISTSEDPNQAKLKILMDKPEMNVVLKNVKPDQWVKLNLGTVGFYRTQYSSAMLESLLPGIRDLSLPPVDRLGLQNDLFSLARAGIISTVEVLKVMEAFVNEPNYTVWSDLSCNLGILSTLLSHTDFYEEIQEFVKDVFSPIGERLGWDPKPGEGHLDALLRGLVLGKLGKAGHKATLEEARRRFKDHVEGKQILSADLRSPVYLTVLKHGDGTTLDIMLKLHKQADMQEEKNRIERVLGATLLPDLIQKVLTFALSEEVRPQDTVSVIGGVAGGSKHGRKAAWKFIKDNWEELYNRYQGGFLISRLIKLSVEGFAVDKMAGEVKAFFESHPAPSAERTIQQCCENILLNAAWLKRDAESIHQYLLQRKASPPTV

## CC(C)C[C@H](NC(=O)[C@H](Cc1ccccc1)NC(=O)c1cnccn1)B(O)O [bortezomib]
[1]; in the absence of ATP
  inhibition of chymotryptic-like activity, compared among 20S forms: comparable potency
[1]; in the presence of ATP
  inhibition of chymotryptic-like activity, 20S compared with 26S: comparable inhibition
SH-SY5Y cells
  change in levels of intracellular peptides (peptidome): increase in the levels of most intracellular peptides
[2]
  effect on cleavage of Ala-AMC by purified PSAP: no significant effect
[3]
  inhibition of Ala-Ala-Phe-AMC cleavage: did not show significant inhibition
26S proteasome
  inhibition of chymotryptic-like activity, 26S compared with 20S: comparable inhibition
[4]
  inhibition of chymotryptic-like activity, compared among 20S forms: comparable potency
[5]
  inhibition of chymotryptic-like activity, compared among 20S forms: comparable potency
[6]; 10 µM inhibitor
  effect on cleavage of Ala-AMC: partially inhibited
[6]; bestatin 50 µM together with bortezomib 10 µM
  Enzyme activity (% control with no inhibitor): 14.8±0.6 % control with no inhibitor
[6]; bestatin 50 µM together with bortezomib 50 µM
  Enzyme activity (% control with no inhibitor): 14.8±0.8 % control with no inhibitor
HEK293T cells
  change in levels of intracellular peptides (peptidome): increase in the levels of most intracellular peptides
[7]
  effect on cleavage of Leu-AMC: partially inhibited

— article PMC4117522, “Proteasome Inhibitors Alter Levels of Intracellular Peptides in HEK293T and SH-SY5Y Cells” (PLoS ONE, 2014)
